# Data from patent publication US8642053B2, “Potentiated topical composition” (priority 2001, dated 2014).
# Legend:
# [1] = In vitro water binding capacity, stratum corneum pieces, 24 hours at 85% relative humidity; set-up: species or system human; conditions: after 24 hours, mean, pentane-1,5-diol 20%, urea 10%, control water content subtracted
# Procedure: Pieces of stratum corneum from the sole of 7 healthy volunteers were used. […] The specimens were removed after 24 hours for weighing. […] The water binding capacity was estimated by subtracting the WC for stratum corneum incubated with distilled water for 24 hours from the WC for the stratum corneum pieces incubated with the test substances for 24 hours. […] While the latter composition does give rise to itching when applied to eczematous skin, this negative effect is not encountered with the composition according to the invention.
# [2] = In vitro water binding capacity, stratum corneum pieces, 6 hrs at 85% relative humidity; conditions: for Water binding capacity after 6 hrs: aqueous 10% by weight solution; for Uptake of water after 6 hrs / Uptake of water after 6 hrs %: pre-incubated with 10% (by weight) solution, relative humidity 85%, room temperature
# [3] = tested on: shaved skin of albino rabbits; experiment: Skin irritation test; format: in vivo, rabbit; conditions: scale 1 (no irritation) to 10 (maximum irritation); 24 hours exposure
# Source text: (§1) Only very mild irritation (score 2 on a 1-10 scale) was observed.
# [4] = tested on: eye (conjunctiva) of albino rabbits; experiment: Eye irritation test; format: in vivo, rabbit; conditions: 1-10 scale
# Source text: as §1
# [5] = aqueous solution containing 20% of pentane-1,5-diol
SMILES,Water binding capacity [1],Water binding capacity ([1]; listed as Urea),Water binding capacity after 6 hrs [2],Uptake of water after 6 hrs [2],Uptake of water after 6 hrs % [2],Skin irritation score [3],Eye irritation score [4],"Water binding capacity ([1]; listed as Pentane-1,5-diol)","Water binding capacity [2, 5]","Water content [2, 5]"
NC(N)=O [urea],16%,16%,17 % by weight,0.0109 mg,28%,–,–,–,–,–
"OCCCCCO [pentane-1,5-diol]",23%,–,9 % by weight,0.0075 mg,20%,1,2,23%,13 % by weight,24%
"CC(O)CO (centres unmarked) [propane-1,2-diol]",–,–,7 % by weight,0.0032 mg,18%,–,–,–,–,–
